Measured values: patent US20240208992A1, “MACROCYCLES AS CFTR MODULATORS” (Idorsia Pharmaceuticals Ltd, priority 2021, published 2024)

Biological target: human F508del-CFTR (Homo sapiens, UniProt P13569, DEL508-508)
Experiment: F508del-CFTR cell surface expression (corrector activity), DiscoveRx ß-galactosidase complementation chemiluminescence assay in recombinant U2OS cell line;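 note: U2OS cells co-expressing ProLink-tagged F508del-CFTR and a membrane-anchored enzyme acceptor, where more surface CFTR restores β-galactosidase activity measured by chemiluminescence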
Conditions: for EC50: EC50, F508del-CFTR cell surface expression, U2OS cells, 16h compound incubation, geomean values; for Emax: U2OS, in relation to Emax of corrector lumacaftor (=100%), arithmetic mean values

human F508del-CFTR, sequence (P13569 with tags, fused parts or gaps DEL508-508): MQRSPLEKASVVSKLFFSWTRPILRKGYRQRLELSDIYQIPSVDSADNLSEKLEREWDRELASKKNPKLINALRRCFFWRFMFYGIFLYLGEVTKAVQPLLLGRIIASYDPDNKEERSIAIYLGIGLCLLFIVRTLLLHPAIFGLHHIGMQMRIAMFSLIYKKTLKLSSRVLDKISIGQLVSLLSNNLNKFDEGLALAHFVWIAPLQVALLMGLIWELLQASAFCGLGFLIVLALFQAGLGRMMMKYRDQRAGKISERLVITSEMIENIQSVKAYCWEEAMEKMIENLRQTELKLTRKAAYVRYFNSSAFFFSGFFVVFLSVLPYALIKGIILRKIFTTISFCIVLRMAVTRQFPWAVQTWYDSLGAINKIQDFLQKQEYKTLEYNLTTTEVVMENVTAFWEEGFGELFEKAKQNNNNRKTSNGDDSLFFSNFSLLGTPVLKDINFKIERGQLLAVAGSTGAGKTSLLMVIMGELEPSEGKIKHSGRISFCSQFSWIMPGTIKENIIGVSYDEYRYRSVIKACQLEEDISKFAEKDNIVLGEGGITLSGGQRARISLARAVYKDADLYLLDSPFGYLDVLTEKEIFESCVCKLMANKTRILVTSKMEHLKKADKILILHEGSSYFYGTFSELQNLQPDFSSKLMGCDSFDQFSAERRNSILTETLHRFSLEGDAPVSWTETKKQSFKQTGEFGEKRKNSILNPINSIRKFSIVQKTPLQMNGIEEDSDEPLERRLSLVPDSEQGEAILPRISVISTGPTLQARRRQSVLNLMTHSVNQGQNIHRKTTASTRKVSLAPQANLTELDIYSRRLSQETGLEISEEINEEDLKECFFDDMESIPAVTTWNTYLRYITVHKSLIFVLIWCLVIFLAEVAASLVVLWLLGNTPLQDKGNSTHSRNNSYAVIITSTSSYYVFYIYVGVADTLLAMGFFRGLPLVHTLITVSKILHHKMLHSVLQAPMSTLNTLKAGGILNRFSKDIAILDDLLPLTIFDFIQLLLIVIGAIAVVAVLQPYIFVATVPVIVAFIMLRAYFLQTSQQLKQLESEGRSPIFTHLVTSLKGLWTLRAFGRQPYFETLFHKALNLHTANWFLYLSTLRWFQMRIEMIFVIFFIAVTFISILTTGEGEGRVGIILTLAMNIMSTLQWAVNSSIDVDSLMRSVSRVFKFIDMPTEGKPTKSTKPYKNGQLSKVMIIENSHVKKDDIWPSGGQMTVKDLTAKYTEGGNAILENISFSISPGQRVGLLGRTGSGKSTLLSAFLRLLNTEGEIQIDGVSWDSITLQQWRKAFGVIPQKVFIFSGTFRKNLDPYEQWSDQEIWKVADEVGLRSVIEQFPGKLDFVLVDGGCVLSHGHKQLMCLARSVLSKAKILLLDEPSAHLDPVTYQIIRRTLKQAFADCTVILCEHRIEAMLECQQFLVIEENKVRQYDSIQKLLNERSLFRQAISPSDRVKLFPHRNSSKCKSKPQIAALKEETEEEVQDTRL

Question: Which EC50 does the source give for `COc1cccc(CCNC(=O)[C@@H]2CC(=O)N(C)[C@@H](CC(C)C)C(=O)N(CCC3CCCCC3)CC(=O)N[C@H](Cc3ccccn3)COc3ccc4ccccc4c3C(=O)N2)c1` [Example 701, (3S,7S,13R)-9-(2-cyclohexylethyl)-7-isobutyl-N-(3-methoxyphenethyl)-6-methyl-1,5,8,11-tetraoxo-13-(pyridin-2-ylmethyl)-1,2,3,4,5,6,7,8,9,10,11,12,13,14-tetradecahydronaphtho[1,2-p][1]oxa[4,7,10,14]tetraazacycloheptadecine-3-carboxamide] here?
Answer: Its EC50 is 165 nM.

Question: What about the Emax of the same compound?
Answer: The Emax was 268%.

Question: Which results are given for `Cc1cc(CCNC(=O)[C@@H]2CC(=O)N(C)[C@@H](CC(C)C)C(=O)N(CC3Cc4ccccc4O3)CC(=O)N[C@H](Cc3ccccc3)COc3cnc4ccccc4c3C(=O)N2)on1` (stereo partly drawn) [Example 702, (3S,7S,13R)-13-benzyl-9-((2,3-dihydrobenzofuran-2-yl)methyl)-7-isobutyl-6-methyl-N-(2-(3-methylisoxazol-5-yl)ethyl)-1,5,8,11-tetraoxo-1,2,3,4,5,6,7,8,9,10,11,12,13,14-tetradecahydro-[1]oxa[4,7,10,14]tetraazacycloheptadecino[17,16-c]quinoline-3-carboxamide]?
Answer: EC50: 295 nM; Emax: 162%

Question: Which results are given for `Cc1cc(CCNC(=O)[C@@H]2CC(=O)N(C)[C@@H](CC(C)C)C(=O)N(CC[C@@H]3CCCCO3)CC(=O)N[C@H](Cc3csc4ccccc34)COc3cnc4ccccc4c3C(=O)N2)on1` [Example 703, (3S,7S,13R)-13-(benzo[b]thiophen-3-ylmethyl)-7-isobutyl-6-methyl-N-(2-(3-methylisoxazol-5-yl)ethyl)-1,5,8,11-tetraoxo-9-(2-((S)-tetrahydro-2H-pyran-2-yl)ethyl)-1,2,3,4,5,6,7,8,9,10,11,12,13,14-tetradecahydro-[1]oxa[4,7,10,14]tetraazacycloheptadecino[17,16-c]quinoline-3-carboxamide]?
Answer: EC50: 316 nM; Emax: 167%

Question: What does the source list for `Cc1cc(CCNC(=O)[C@@H]2CC(=O)N(C)[C@@H](CC(C)C)C(=O)N(C[C@H]3COc4ccccc4C3)CC(=O)N[C@H](Cc3ccccc3)COc3cnc4ccccc4c3C(=O)N2)on1` [Example 704, (3S,7S,13R)-13-benzyl-9-(((S)-chroman-3-yl)methyl)-7-isobutyl-6-methyl-N-(2-(3-methylisoxazol-5-yl)ethyl)-1,5,8,11-tetraoxo-1,2,3,4,5,6,7,8,9,10,11,12,13,14-tetradecahydro-[1]oxa[4,7,10,14]tetraazacycloheptadecino[17,16-c]quinoline-3-carboxamide]?
Answer: EC50: 398 nM; Emax: 156%

Question: What does the source list for `Cc1cc(CCNC(=O)[C@@H]2CC(=O)N(C)[C@@H](CC(C)C)C(=O)N(C[C@@H]3COc4ccccc4C3)CC(=O)N[C@H](Cc3ccccc3)COc3cnc4ccccc4c3C(=O)N2)on1` [Example 705, (3S,7S,13R)-13-benzyl-9-(((R)-chroman-3-yl)methyl)-7-isobutyl-6-methyl-N-(2-(3-methylisoxazol-5-yl)ethyl)-1,5,8,11-tetraoxo-1,2,3,4,5,6,7,8,9,10,11,12,13,14-tetradecahydro-[1]oxa[4,7,10,14]tetraazacycloheptadecino[17,16-c]quinoline-3-carboxamide]?
Answer: EC50: 305 nM; Emax: 193%

Question: For `Cc1cc(CCNC(=O)[C@@H]2CC(=O)N(C)[C@@H](CC(C)C)C(=O)N(C[C@H]3CCCC(C)(C)O3)CC(=O)N[C@H](Cc3ccccc3)COc3cnc4ccccc4c3C(=O)N2)on1` [Example 706, (3S,7S,13R)-13-benzyl-9-(((R)-6,6-dimethyltetrahydro-2H-pyran-2-yl)methyl)-7-isobutyl-6-methyl-N-(2-(3-methylisoxazol-5-yl)ethyl)-1,5,8,11-tetraoxo-1,2,3,4,5,6,7,8,9,10,11,12,13,14-tetradecahydro-[1]oxa[4,7,10,14]tetraazacycloheptadecino[17,16-c]quinoline-3-carboxamide], which EC50 is on record?
Answer: The EC50 was 707 nM.

Question: And the Emax?
Answer: The Emax was 162%.

Question: With `Cc1cc(CCNC(=O)[C@@H]2CC(=O)N(C)[C@@H](CC(C)C)C(=O)N(C[C@@H]3CCCC(C)(C)O3)CC(=O)N[C@H](Cc3ccccc3)COc3cnc4ccccc4c3C(=O)N2)on1` [Example 707, (3S,7S,13R)-13-benzyl-9-(((S)-6,6-dimethyltetrahydro-2H-pyran-2-yl)methyl)-7-isobutyl-6-methyl-N-(2-(3-methylisoxazol-5-yl)ethyl)-1,5,8,11-tetraoxo-1,2,3,4,5,6,7,8,9,10,11,12,13,14-tetradecahydro-[1]oxa[4,7,10,14]tetraazacycloheptadecino[17,16-c]quinoline-3-carboxamide] as the compound, how does the EC50 read?
Answer: The EC50 was 502 nM.

Question: What about the Emax of the same compound?
Answer: Its Emax is 305%.

Question: Which results are given for `Cc1cc(CCNC(=O)[C@@H]2CC(=O)N(C)[C@@H](CC(C)C)C(=O)N(C)C3(CCCC3)C(=O)N[C@H](Cc3ccccc3)COc3cnc4ccccc4c3C(=O)N2)on1` [Example 708, (3′S,7′S,13′R)-13′-benzyl-7′-isobutyl-6′,9′-dimethyl-N-(2-(3-methylisoxazol-5-yl)ethyl)-1′,5′,8′,11′-tetraoxo-2′,3′,4′,5′,6′,7′,8′,9′,11′,12′,13′,14′-dodecahydro-1′H-spiro[cyclopentane-1,10′-[1]oxa[4,7,10,14]tetraazacycloheptadecino[17,16-c]quinoline]-3′-carboxamide]?
Answer: EC50: 874 nM; Emax: 195%

Question: What does the source list for `Cc1cc(CCNC(=O)[C@@H]2CC(=O)N(C)[C@@H](CC(C)C)C(=O)N(C)[C@H](CC3CCCCC3)C(=O)N[C@H](Cc3ccccc3)COc3cnc4ccccc4c3C(=O)N2)on1` [Example 709, (3S,7S,10R,13R)-13-benzyl-10-(cyclohexylmethyl)-7-isobutyl-6,9-dimethyl-N-(2-(3-methylisoxazol-5-yl)ethyl)-1,5,8,11-tetraoxo-1,2,3,4,5,6,7,8,9,10,11,12,13,14-tetradecahydro-[1]oxa[4,7,10,14]tetraazacycloheptadecino[17,16-c]quinoline-3-carboxamide]?
Answer: EC50: 47 nM; Emax: 284%

Question: How did the EC50 turn out when `Cc1cc(CCNC(=O)[C@@H]2CC(=O)N(C)[C@@H](CC(C)C)C(=O)N(C)[C@H](C3CCCC3)C(=O)N[C@H](Cc3ccccc3)COc3cnc4ccccc4c3C(=O)N2)on1` [Example 710, (3S,7S,10R,13R)-13-benzyl-10-cyclopentyl-7-isobutyl-6,9-dimethyl-N-(2-(3-methylisoxazol-5-yl)ethyl)-1,5,8,11-tetraoxo-1,2,3,4,5,6,7,8,9,10,11,12,13,14-tetradecahydro-[1]oxa[4,7,10,14]tetraazacycloheptadecino[17,16-c]quinoline-3-carboxamide] was run?
Answer: The EC50 was 149 nM.

Question: What about the Emax of the same compound?
Answer: Its Emax is 280%.

Question: Which results are given for `Cc1cc(CCNC(=O)[C@@H]2CC(=O)N(C)[C@@H](CC(C)C)C(=O)N(C)C3(CC(F)(F)C3)C(=O)N[C@H](Cc3ccccc3)COc3cnc4ccccc4c3C(=O)N2)on1` [Example 711, (3′S,7′S,13′R)-13′-benzyl-3,3-difluoro-7′-isobutyl-6′,9′-dimethyl-N-(2-(3-methylisoxazol-5-yl)ethyl)-1′,5′,8′,11′-tetraoxo-2′,3′,4′,5′,6′,7′,8′,9′,11′,12′,13′,14′-dodecahydro-1′H-spiro[cyclobutane-1,10′-[1]oxa[4,7,10,14]tetraazacycloheptadecino[17,16-c]quinoline]-3′-carboxamide]?
Answer: EC50: 778 nM; Emax: 301%

Question: Which EC50 does the source give for `Cc1cc(CCNC(=O)[C@@H]2CC(=O)N(C)[C@@H](CC(C)C)C(=O)N(C)[C@H](COCc3ccccc3)C(=O)N[C@H](Cc3ccccc3)COc3ccc4ccccc4c3C(=O)N2)on1` [Example 714, (3S,7S,10R,13R)-13-benzyl-10-((benzyloxy)methyl)-7-isobutyl-6,9-dimethyl-N-(2-(3-methylisoxazol-5-yl)ethyl)-1,5,8,11-tetraoxo-1,2,3,4,5,6,7,8,9,10,11,12,13,14-tetradecahydronaphtho[1,2-p][1]oxa[4,7,10,14]tetraazacycloheptadecine-3-carboxamide] here?
Answer: Its EC50 is 36 nM.

Question: And the Emax?
Answer: Its Emax is 410%.

Question: What does the source list for `COc1cccc(CCNC(=O)[C@@H]2CC(=O)N(C)[C@@H](CC(C)C)C(=O)N(C)[C@@H](COCc3ccccc3)C(=O)N[C@H](Cc3ccccc3)COc3ccc4ccccc4c3C(=O)N2)c1` [Example 715, (3S,7S,10S,13R)-13-benzyl-10-((benzyloxy)methyl)-7-isobutyl-N-(3-methoxyphenethyl)-6,9-dimethyl-1,5,8,11-tetraoxo-1,2,3,4,5,6,7,8,9,10,11,12,13,14-tetradecahydronaphtho[1,2-p][1]oxa[4,7,10,14]tetraazacycloheptadecine-3-carboxamide]?
Answer: EC50: 64 nM; Emax: 283%

Question: How did the EC50 turn out when `Cc1cc(CCNC(=O)[C@@H]2CC(=O)N(C)[C@@H](CC(C)C)C(=O)N(C)[C@@H](COCc3ccccc3)C(=O)N[C@H](Cc3ccccc3)COc3ccc4ccccc4c3C(=O)N2)on1` [Example 716, (3S,7S,10S,13R)-13-benzyl-10-((benzyloxy)methyl)-7-isobutyl-6,9-dimethyl-N-(2-(3-methylisoxazol-5-yl)ethyl)-1,5,8,11-tetraoxo-1,2,3,4,5,6,7,8,9,10,11,12,13,14-tetradecahydronaphtho[1,2-p][1]oxa[4,7,10,14]tetraazacycloheptadecine-3-carboxamide] was run?
Answer: The EC50 was 144 nM.

Question: What about the Emax of the same compound?
Answer: The Emax was 313%.

Question: What does the source list for `Cc1cc(CCNC(=O)[C@@H]2CC(=O)N(C)[C@@H](CC(C)C)C(=O)N(C)[C@H](C3CCCC3)C(=O)N[C@H](Cc3ccccc3)COc3cnc4ccc(F)cc4c3C(=O)N2)on1` [Example 721, (3S,7S,10R,13R)-13-benzyl-10-cyclopentyl-20-fluoro-7-isobutyl-6,9-dimethyl-N-(2-(3-methylisoxazol-5-yl)ethyl)-1,5,8,11-tetraoxo-1,2,3,4,5,6,7,8,9,10,11,12,13,14-tetradecahydro-[1]oxa[4,7,10,14]tetraazacycloheptadecino[17,16-c]quinoline-3-carboxamide]?
Answer: EC50: 142 nM; Emax: 328%
